The values below come from patent publication US10512656B2, “Compositions and methods for the treatment of lysosomal storage disorders and disorders characterized by lysosomal dysfunction” (Baylor College of Medicine, priority 2016, dated 2019).

The subject of one test is Cln3^Δex7-8 mice. The experiment in a line: Wet brain weight. The format is in vivo, mouse. The conditions noted are these: 12-month-old Cln3^Δex7-8 mice, trehalose treatment; untreated 0.355±0.024 g, WT 0.516±0.021 g. The protocol:
Cln3^Δex7-8 mice (stock no. 004685; Cln3^tm1.1Mem/J; CD-1 background)^32 were obtained from the Jackson Laboratory. Control (CD-1) and Cln3^Δex7-8 mice were housed 3-4 per cage in a room with a 12-h light/12-h dark cycle. Food and water were provided ad libitum. All mice used in this study were analyzed at 8 and 12 months of age and were littermates produced by crossing heterozygous Cln3^Δex7-8 mice. Only males were used for this analysis. Investigators were blinded when analyzing the data, and no randomization was necessary. No data were excluded from this study.
Trehalose (Swanson) was dissolved in drinking water to a final concentration of 2% and changed twice a week. Trehalose-containing water was given to Cln3^Δex7-8 and WT mice by spontaneous oral administration starting at 21 days of age and continuing until the day the mice died naturally (life span assessment) or were sacrificed for other studies.

The subject of the next test is TFEB. The experiment in a line: TFEB nuclear translocation in HeLa cells with WT or constitutively active mTOR. Type of test: cell-based, human. The conditions noted are these: cells transfected with WT mTOR or mTOR^E2419K, trehalose 100 mM 24 h. The protocol: (b) Quantification of TFEB subcellular localization (C, cytoplasmic; N, nuclear) after 24 h of trehalose treatment (Tre) or in untreated cells (UT). Scale bars in a, b is 40 μm. (c) Immunoblot analyses show expression levels of substrates downstream of mTORC1. Wild-type (WT) and TSC2 null MEF cells were treated with trehalose (Tre; 100 mM) for 24 h or left untreated. As controls, cells were treated with Torin 1 (300 nM) or rapamycin (300 nM) for 2 h before extracting the lysates. Phospho- and total S6K1 (P-S6K1 and T-S6K1), phospho- and total S6 (P-S6 and T-S6) and phospho- and total 4E-BP1 (P-4E-BP1 and T-4E-BP1) were detected as readouts of mTORC1 activity. […] (f) HeLa cells co-transfected with TFEB-3×FLAG and mTOR or (g) TFEB-3×FLAG and constitutively active mTOR (CA-mTOR, […]) constructs were treated with trehalose (100 mM for 24 h) or left untreated before immunofluorescent labelling of TFEB (red) and mTOR (green) with FLAG and mTOR antibodies, respectively. Scale bar, 10 μm (d-g). Data represent means±s.e.m.
For immunofluorescence assay, cells were grown on coverslips in 24-well plates. After the treatment, cells were washed with PBS and fixed with methanol for 10 min. Cells were then blocked with blocking reagent (0.1% saponin, 10% bovine serum in PBS) for 1 h and incubated with appropriate primary antibody(s) (1:100) for 3 h at room temperature. […]

In another test the test system is lysosomal genes. The experiment in a line: Real-time qPCR in primary cortical neuron cultures. The format is cell-based, mouse. The settings on record: cortical neurons from WT and Cln3^Δex7-8 embryos, 100 mM trehalose. The protocol:
Cortical and Hippocampal neurons were prepared from E17.5 and postnatal day 0-1 mice and plated on poly-D-lysine coated six-well plates (BD Biosciences) in Neurobasal medium supplemented with GlutaMAX-I (Invitrogen), B-27 and 1% FBS. At days in vitro (DIV) 4, neurons were treated with 100 mM trehalose. At DIV 8, neurons were collected and RNA extraction was performed.
Total RNA was extracted from the control and JNCL fibroblasts and from WT and Cln3^Δex7-8 cortical neuron cultures using the RNEasy kit (Qiagen) according to the manufacturer's instructions. Half of the mouse brain was processed for the RNA extraction and one microgram was used for complementary DNA synthesis by QuantiTect Reverse Transcription kit (Qiagen). The primers for PCR with reverse transcription reactions are listed in Table St Quantitative real-time PCR was performed by using iQ SYBR Green Supermix on the CFX96 Touch Real-Time Detection System (Bio-Rad Laboratories). Samples were heated for 3 min at 95° C. and amplified in 39 cycles for 11 s at 95° C., 45 s at 60° C. with last cycle of 10 s at 95° C., 5 s at 65° C. and 5 s at 95° C. Analyses were conducted using CFX manager software (Bio-Rad) and the threshold cycle (CT) was extracted from the PCR amplification plot. Relative gene expression was determined using the ΔΔCT method, normalizing to GAPDH (for human genes) and cyclophilin (for mouse genes). […]
(Quantitative PCR measures a nucleic acid by following its amplification.)

Another test has as its system LAMP1. Put plainly: LAMP1 immunoblot in primary cortical astrocyte cultures. Type of test: cell-based, mouse. The conditions noted are these: astrocytes from WT and Cln3^Δex7-8 mice, 100 mM trehalose 4 days. The protocol:
Astrocytes were isolated from P0-1 mice and plated on poly-D-lysine coated six-well plates (BD Biosciences) in the presence of DMEM high glucose, supplemented with 10% FBS and 100 U/ml penicillin and […] streptomycin. After 7 days, the glial cell layer was removed and astrocytes were plated for treatment. An amount of 100 mM of trehalose was dissolved in the media the day after and kept for 4 days. Finally, astrocytes were collected and protein extracts were analysed by western blot assay.
Brain tissue and cultured cells were collected and lysed in RIPA buffer (50 mM Tris-HCl, ph 7.4, 1% NP40, 0.5% Na-deoxycholate, 0.1% SDS, 150 mM NaCl, 2 mM EDTA and 50 mM NaF) including a cocktail of protease (Roche) and phosphatase (SIGMA) inhibitors. Protein concentrations were measured with the bicinchoninic acid protein assay kit (Pierce, Rockford, Ill.), using bovine serum albumin as standard. Lysates were separated via SDS-polyacrylamide gel electrophoresis (PAGE) and then transferred to nitrocellulose membranes. Blots were incubated in blocking buffer (5%, w/v, dried skimmed milk in Tris-buffered saline, pH 7.4 and 0.2% Tween 20, TBST) followed by overnight incubation with appropriate antibodies diluted in blocking buffer (5% dry milk). Western blot images were acquired by LAS 4000 (GE Healthcare) and quantified using ImageJ. Images have been cropped for presentation.
On the technique in general: A western blot detects proteins with antibodies after separation by electrophoresis.

In another test the test system is MITF. Put plainly: MITF nuclear translocation in HeLa cells. The format is cell-based, human. The conditions noted are these: HeLa cells transfected with MITF-3×Flag. An excerpt:
FIG. 23. Pharmacological inhibition of AKT induces nuclear translocation of TFE3 and MITF. HeLa cells were transiently transfected with TFE3-3×Flag (a) and MITF-3×Flag (b) and analyzed by confocal microscopy. Scale bar is 10 μm.

SMILES strings stand for the structures.

In the case of `OC[C@H]1O[C@H](O[C@H]2O[C@H](CO)[C@@H](O)[C@H](O)[C@H]2O)[C@H](O)[C@@H](O)[C@@H]1O` [trehalose, a-D-glucopyranosyl a-D-glucopyranoside], in the test on Cln3^Δex7-8 mice, the wet brain weight came out at 0.473 ± 0.028 g. Moreover, the TFEB nuclear translocation result with TFEB was “induces nuclear translocation of TFEB”. In the test on lysosomal genes, the “expression of lysosomal genes” value was “transcriptional activation of lysosomal genes”. Besides, the LAMP1 levels result with LAMP1 was “increased LAMP1 levels”.
In the case of `Cl.NC1(c2ccc(-c3nc4ccn5c(=O)[nH]nc5c4cc3-c3ccccc3)cc2)CCC1` [MK2206, 8-[4-(1-aminocyclobutyl)phenyl]-9-phenyl-1,2,4-triazolo[3,4-f][1,6]naphthyridin-3(2H)-one], the MITF nuclear translocation entry in the test on MITF was “promoted nuclear translocation of these two factors”.
